This passage reports viability results from publication PMC12040169 (PLOS Biology, 2025).

Molecules are shown by their SMILES.

The nature of the series: in vitro. The following applies: human, hela cells, % viability.
For orientation: viability means a read-out of living cells in per cent, often relative to untreated cells. For `COc1cccc(C(=O)N2CCCC(c3cc4cnccc4[nH]3)C2)c1` (centres unmarked) [CBK285417], the viability at 28.5 h, 10 µM stood at 104%.

Take `COc1ccc(-c2cn3cccnc3n2)cc1NC(=O)c1ccccc1` [CBK287296]: the viability at 28.5 h, 10 µM turned out to be 73.8%.

Turning to `C=C(C)Cn1c(SCC(C)C)nnc1-c1ccc(F)cc1` [CBK200085], the viability at 28.5 h, 10 µM came to 99.9%.

As for `CCOC(=O)c1[nH]c2ccccc2c1NS(=O)(=O)c1ccc(Br)cc1` [CBK047409], the viability at 28.5 h, 10 µM was determined as 116%.

For `Cc1ccc(S(=O)(=O)NCCc2cn3ccc(C)cc3n2)cc1` [CBK287630], the viability at 28.5 h, 10 µM is 103%.

Turning to `Cc1ccccc1NC(=O)NC(=O)C1CCN(S(C)(=O)=O)CC1` [CBK034862], the viability at 28.5 h, 10 µM was 87.7%.

As for `O=S(=O)(NCc1ccccc1)c1cccc(S(=O)(=O)NCc2ccccc2)c1` [CBK263250], the viability at 28.5 h, 10 µM stood at 91.5%.

`CSCCN(C)c1nc2c(c(=O)[nH]1)Cc1ccccc1OC2` [CBK307523]: the viability at 28.5 h, 10 µM was 100%.

On to `CCOC(=O)c1ccc(-c2ccc(/C=C/c3nn4cnnc4c(O)c3[N+](=O)[O-])o2)cc1` [CBK268409], for which the viability at 28.5 h, 10 µM stood at 107%.

For `O=C(Nc1cc(F)ccc1N1CCCC1)c1ccc(=O)n(CC(=O)N2CCCCC2)c1` [CBK286083], the viability at 28.5 h, 10 µM was determined as 97.7%.

Take `CC[C@H]1CN(S(=O)(=O)c2ccccc2)CC[C@H]1CC(=O)N(C)CC#N` [CBK289140]: the viability at 28.5 h, 10 µM turned out to be 108%.

With `Cc1ccc2[nH]c(CNC(=O)c3cn[nH]c3C3CCCCN3)nc2c1` (centres unmarked) [CBK304741], the viability at 28.5 h, 10 µM was 100%.

As to `COc1ncccc1NC(=O)CSCC#N` [CBK306314], the viability at 28.5 h, 10 µM is 108%.

Consider `COc1ccc(CCOc2cnc(-c3ccccc3)c(N)n2)cc1` [CBK145065], for which the viability at 28.5 h, 10 µM was determined as 98.8%.

As for `CN1CCN(c2ccc3ccn(S(=O)(=O)c4ccc([N+](=O)[O-])cc4)c3n2)CC1` [CBK070757C], the viability at 28.5 h, 10 µM came out at 104%.

Regarding `CC(=O)Nc1cccc(-n2nnnc2SCC2CCCN(C)C2)c1` (centres unmarked) [CBK305294], the viability at 28.5 h, 10 µM amounted to 108%.

As for `COc1cccc(-n2c(C)nnc2C2(OC(C)=O)CCN(CCc3ccccc3)CC2)c1` [CBK016371], the viability at 28.5 h, 10 µM is 108%.

On to `CC(=O)N[C@H]1CC[C@]2(C)CCC([C@H](C)C(=O)NCCN3CCCC3)[C@H](O)[C@H]2[C@@H]1C` (some centres unmarked) [CBK289440], for which the viability at 28.5 h, 10 µM is 86.5%.

Consider `O=C(Nc1ccncc1)OCCc1cccnc1` [CBK200125], for which the viability at 28.5 h, 10 µM worked out at 94.2%.

`COCCNC(=O)c1nn(-c2cccc(C(C)C)c2)cc1O` [CBK304884]: the viability at 28.5 h, 10 µM came out at 90.8%.

As to `CCCC1CCN(Cc2ccn(Cc3ccc(S(C)(=O)=O)cc3)c2)CC1` [CBK144937], the viability at 28.5 h, 10 µM stood at 94.4%.

Consider `Cc1ccc(S(=O)(=O)Nc2nnc(C(C)C)s2)cc1` [CBK045528], for which the viability at 28.5 h, 10 µM worked out at 108%.

As for `CCNS(=O)(=O)c1ccc(NC(=O)c2nc3nc(C)cc(C(F)F)n3n2)cc1` [CBK266146], the viability at 28.5 h, 10 µM is 104%.

On to `Fc1cc(Br)c(CNCc2cocn2)c(N2CCCCC2)c1F` [CBK304792], for which the viability at 28.5 h, 10 µM came to 86.8%.

Regarding `O=[N+]([O-])c1cccc(S(=O)(=O)NCCOc2cccc3cccnc23)c1` [CBK268489], the viability at 28.5 h, 10 µM was determined as 98.6%.

`CCOC(=O)N/N=C1\CCSc2sccc21` [CBK006300]: the viability at 28.5 h, 10 µM worked out at 110%.

Turning to `Cc1ccc(S(=O)(=O)NC(C)(C)CSc2nnc(N)s2)cc1` [CBK266350], the viability at 28.5 h, 10 µM stood at 97.1%.

On to `Cc1cccc(-c2noc([C@@H]3Cc4[nH]cnc4CN3C(=O)NC(C)C)n2)c1` [CBK288962], for which the viability at 28.5 h, 10 µM amounted to 97.6%.

In the case of `Cn1cc(/C=C(\C(=O)O)C(C(=O)O)=C2C3CC4CC(C3)CC2C4)c2ccccc21` [CBK263749], the viability at 28.5 h, 10 µM is 96.5%.

For the compound `COCCNS(=O)(=O)c1cccc2c1CN(C(=O)CC1CCCC1)CC2` [CBK306982], the viability at 28.5 h, 10 µM came to 101%.

`COCCCNC(=O)c1cccs1` [CBK009164]: the viability at 28.5 h, 10 µM was determined as 91.8%.

With `c1ccc(CCCN2CCN(Cc3ccccc3)CC2)cc1` [CBK261878], the viability at 28.5 h, 10 µM is 90.1%.

Turning to `O=C(CCCCCN1C(=O)c2ccccc2C1=O)NO` [CBK288514], the viability at 28.5 h, 10 µM came out at 80.2%.

With `Cc1nn(CC(=O)N2CCCCC2)c(=O)c2cc3sccc3n12` [CBK284040], the viability at 28.5 h, 10 µM worked out at 93.6%.

On to `CCCOc1ccc(N2C(=O)CC(N3CCC(C(=O)O)CC3)C2=O)cc1` (centres unmarked) [CBK287235], for which the viability at 28.5 h, 10 µM amounted to 102%.

Take `COc1ccccc1NC(=O)Cn1nc(-c2ccc(C)cc2)ccc1=O` [CBK269974]: the viability at 28.5 h, 10 µM was found to be 93.1%.

On to `Brc1cn2ccnc2c(Nc2ccc3[nH]ccc3c2)n1` [CBK037449], for which the viability at 28.5 h, 10 µM was found to be 102%.

For `CN1CCCC1c1cccnc1` (centres unmarked) [CBK015659], the viability at 28.5 h, 10 µM was found to be 94%.

In the case of `CCC1(CC)CCN(C(=O)CCn2ccc3ccncc32)C1` [CBK285176], the viability at 28.5 h, 10 µM is 84.9%.

With `Nc1nccnc1C(=O)Oc1ccccc1` [CBK090311], the viability at 28.5 h, 10 µM was 88.1%.

As for `OC12CCCCC1CN(CC1=Cc3ccccc3OC1)CC2` (centres unmarked) [CBK282954], the viability at 28.5 h, 10 µM is 86.3%.

As to `CN(C(=O)CN1CCCCC1Cn1cccn1)C1(C#N)CCCCC1` (centres unmarked) [CBK305412], the viability at 28.5 h, 10 µM was found to be 90.1%.

`COc1cc(/C=C2\SC(=S)N(Cc3cccnc3)C2=O)ccc1OCc1cccc2ccccc12` [CBK264624]: the viability at 28.5 h, 10 µM was determined as 112%.

Take `Cc1ccccc1-c1cc(=O)[nH]c(Nc2ccccc2)n1` [CBK288142]: the viability at 28.5 h, 10 µM came out at 97%.

On to `CC(C)Cn1c(=O)[nH]c2ncc(-c3ccc(O)cc3)nc21` [CBK065011], for which the viability at 28.5 h, 10 µM stood at 105%.

Regarding `CSc1cccc(C(=O)Nc2sc3c(c2C#N)CCN(C(C)=O)C3)c1` [CBK304390], the viability at 28.5 h, 10 µM is 56%.

With `Nc1ncc(-c2ccncc2)nc1-c1ccc(C=O)cc1` [CBK064102], the viability at 28.5 h, 10 µM stood at 106%.

On to `Cc1oc(C2CC2)cc1C(=O)N1CCCC1c1nc2ccccc2[nH]1` (centres unmarked) [CBK283741], for which the viability at 28.5 h, 10 µM stood at 88.1%.

On to `CC(=O)c1ccc(-c2cnc(Nc3ccc(N4CCOCC4)cc3)c3nccn23)s1` [CBK091231], for which the viability at 28.5 h, 10 µM is 95.3%.

Regarding `O=C(C1CCC1)N1CCC(c2nc(C3CCCC3)no2)C1` (centres unmarked) [CBK285434], the viability at 28.5 h, 10 µM is 88.1%.

For `Cc1cnc(CNC(=O)N(CCC#N)C2CCCCC2)cn1` [CBK156352], the viability at 28.5 h, 10 µM was 96.5%.

As to `O=C(CN1CCN(Cc2ccccc2)CC1)Nc1ccc(C(F)(F)F)cc1Cl` [CBK074781], the viability at 28.5 h, 10 µM was 103%.

Turning to `Cc1nccn1CC1(O)CCN(Cc2ccccc2F)CC1` [CBK284961], the viability at 28.5 h, 10 µM came out at 105%.

`CC(C)CNc1nccnc1-c1ccc2c(c1)OCO2` [CBK088730]: the viability at 28.5 h, 10 µM stood at 98.4%.

`COCCn1cc(C(=O)N2CCOC3CCCC32)c2ccccc21` (centres unmarked) [CBK305156]: the viability at 28.5 h, 10 µM came to 86.1%.

Regarding `CNC(=O)CSc1nc2ccccc2nc1C(F)(F)F` [CBK107206], the viability at 28.5 h, 10 µM is 95.9%.

For the compound `N#Cc1ccccc1NC(=O)NCCC1=CCCCC1` [CBK044365], the viability at 28.5 h, 10 µM is 95.1%.

Turning to `O=C(CN(c1ccccc1)S(=O)(=O)c1ccccc1[N+](=O)[O-])Nc1ccccc1` [CBK263777], the viability at 28.5 h, 10 µM turned out to be 76.3%.

Take `Cn1ncc(Cl)c1C1CCCCCN1C(=O)c1ccco1` (centres unmarked) [CBK284915]: the viability at 28.5 h, 10 µM was determined as 104%.

As to `O=C1CN(C(=O)NCc2ccc(F)cc2)CCN1` [CBK155869], the viability at 28.5 h, 10 µM is 88.2%.

`CCn1cc(CN(CCN(C)C)Cc2cccs2)c(C)n1` [CBK283037]: the viability at 28.5 h, 10 µM was 101%.

Turning to `O=c1ccn([C@@H]2O[C@H](CO)[C@H](O)C2O)c(=S)[nH]1` (some centres unmarked) [CBK201210], the viability at 28.5 h, 10 µM is 91.8%.

Take `Cc1cc(C)c(Oc2nc(=O)n([C@H]3C[C@@H](O)[C@@H](CO)O3)cc2F)c(C)c1` [CBK201184]: the viability at 28.5 h, 10 µM is 96.4%.

For `CC(C)C(=O)Nc1cc2ccccc2c(-c2ccc(OCc3ccccc3)c(F)c2)n1` [CBK073783], the viability at 28.5 h, 10 µM was 89.8%.

Consider `O=C(O)/C=C\C(=O)NCC(=O)O` [CBK260989], for which the viability at 28.5 h, 10 µM was 93.5%.

On to `COC(=O)c1ccccc1OCCc1csc(NS(=O)(=O)c2cccc(Cl)c2C)n1` [CBK023735], for which the viability at 28.5 h, 10 µM came out at 116%.

In the case of `O=C(NCCOc1ccc(F)cc1)c1cccc(-n2cccn2)c1` [CBK281596], the viability at 28.5 h, 10 µM is 101%.

On to `CCNC(=O)CN1CCN(C(C(=O)O)c2c[nH]c3ccc(C)cc23)CC1` (centres unmarked) [CBK286694], for which the viability at 28.5 h, 10 µM was found to be 98%.

Take `COc1ncccc1C(=O)Nc1c(C)noc1C` [CBK200307]: the viability at 28.5 h, 10 µM was determined as 103%.

Take `Cc1ccc2nc(-c3ccc(/N=C/c4cccc(O)c4O)cc3)sc2c1` [CBK261583]: the viability at 28.5 h, 10 µM was 96%.

Regarding `O=C(O)Cn1c2ccc(Br)cc2c2nc3ccccc3nc21` [CBK266416], the viability at 28.5 h, 10 µM was 97.1%.

As to `NC(=O)[C@H]1C[C@@H](O)[C@H](O)[C@H]2[C@@H]1S/C(=N\c1ccccc1)N2Cc1cccs1` [CBK288944], the viability at 28.5 h, 10 µM came out at 100%.

With `CN1C(C(=O)O)=CC(c2ccc(F)cc2)=NS1(=O)=O` [CBK287016], the viability at 28.5 h, 10 µM stood at 97.7%.

On to `O=C1C2C(c3ccccc3Cl)OC3(C(=O)c4ccccc4C3=O)C2C(=O)N1c1ccc([N+](=O)[O-])cc1` (centres unmarked) [CBK262425], for which the viability at 28.5 h, 10 µM was found to be 101%.

Turning to `COc1ccc(/C=C(/NC(=O)c2cccc([N+](=O)[O-])c2)C(=O)O)cc1OC` [CBK263362], the viability at 28.5 h, 10 µM came out at 97.1%.

Consider `Sc1nnc(COc2ccc(-c3ccccc3)cc2)n1-c1ccccc1` [CBK264964], for which the viability at 28.5 h, 10 µM was 105%.

Turning to `Clc1ccccc1-c1nnc(Cn2c3ccc(Br)cc3c3nc4ccccc4nc32)o1` [CBK269091], the viability at 28.5 h, 10 µM stood at 88.5%.

With `CC(=O)NC1CCN(CC2(c3ccccc3F)CCCC2)CC1` [CBK282591], the viability at 28.5 h, 10 µM worked out at 86.7%.

On to `O=C(COc1ccc([N+](=O)[O-])cc1)N/N=C/c1cc(Br)cc(Br)c1O` [CBK262094], for which the viability at 28.5 h, 10 µM was determined as 98.3%.

For the compound `COc1ccc(-c2cc(C(=O)N3CCC(S(C)(=O)=O)C3)cnc2-c2ccccc2)cn1` (centres unmarked) [CBK036706], the viability at 28.5 h, 10 µM was 99.7%.
